# Experimental data: patent publication US10538555B2, “Macrocyclic inhibitors of the PD-1/PD-L1 and CD80(B7-1)/PD-L1 protein/protein interactions” (BRISTOL-MYERS SQUIBB COMPANY, priority 2014, dated 2020)
# *1 amine or outer side, *2 acyl side, *3 side chain or, on linkers, in order; H or OH if unused. Where a SMILES comes first, the peptide text is derived from it. Bridges are numbered along the chain shown (N, C = ends). [ ]: non-standard residue; d: D form. ξ: configuration not given here. X5 = O=C(O)CC[C@H](N[*:1])C(=O)C1C[C@H](O)C[C@H]1C(=O)[*:2]; Trp(1-CH2COOH) = N[C@@H](Cc1cn(CC(=O)O)c2ccccc12)C(=O)O; Trp(βS-Me) = C[C@@H](c1c[nH]c2ccccc12)[C@H](N)C(=O)O; Phe(3,4,5-F3) = N[C@@H](Cc1cc(F)c(F)c(F)c1)C(=O)O; Phe(3,4-F2) = N[C@@H](Cc1ccc(F)c(F)c1)C(=O)O; NMePhe(4-Me) = CN[C@@H](Cc1ccc(C)cc1)C(=O)O; Trp(1-Me) = Cn1cc(C[C@H](N)C(=O)O)c2ccccc21; Phe(4-F) = N[C@@H](Cc1ccc(F)cc1)C(=O)O; Bta = N[C@@H](Cc1csc2ccccc12)C(=O)O; Hyp = O=C(O)[C@@H]1C[C@@H](O)CN1; NMeF = CN[C@@H](Cc1ccccc1)C(=O)O; dHyp = O=C(O)[C@H]1C[C@H](O)CN1; NMehSer = CN[C@@H](CCO)C(=O)O; NMeNle = CCCC[C@H](NC)C(=O)O; NMeM = CN[C@@H](CCSC)C(=O)O; Pip = O=C(O)[C@@H]1CCCCN1; dPip = O=C(O)[C@H]1CCCCN1; NMeA = CN[C@@H](C)C(=O)O; Orn = NCCC[C@H](N)C(=O)O; Dab = NCC[C@H](N)C(=O)O; Abu = CC[C@H](N)C(=O)O; Dap = NC[C@H](N)C(=O)O; ξC = NC(CS)C(=O)O; Sar = CNCC(=O)O
# Molecular target: T1, Human PD-L1/PD-1 (Homo sapiens, UniProt Q9NZQ7)
# T1 construct: TVMV protease cleavage site (C); made in house; host or cells: HEK293T cells
# T1 sequence (Q9NZQ7 with tags, fused parts or gaps): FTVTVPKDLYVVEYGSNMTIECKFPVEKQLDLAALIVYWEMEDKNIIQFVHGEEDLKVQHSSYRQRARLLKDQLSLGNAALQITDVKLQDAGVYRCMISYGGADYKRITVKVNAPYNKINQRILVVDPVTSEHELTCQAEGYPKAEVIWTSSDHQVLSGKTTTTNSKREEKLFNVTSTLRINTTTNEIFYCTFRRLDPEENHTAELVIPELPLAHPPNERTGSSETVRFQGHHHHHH
# Experiment: HTRF Human PD-L1/PD-1 binding assay (PD-1-Ig/PD-L1-His)
# Details: PD-L1-His 10 nM, PD-1-Ig 20 nM; class symbol; read-out: HTRF Human PD-L1/PD-1 Binding Assay IC50 Range
# Procedure, shortened: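 Step 1: compound with PD-L1-His (10 nM final), 15 min. Step 2: PD-1-Ig (20 nM final), 15 min. Step 3: Eu-cryptate anti-Ig (1 nM) plus APC anti-His (20 nM), 30 min equilibration. Signal taken as 665 nm/620 nm ratio.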
row,Structure (SMILES),IC50 [nM]
1,"CCCC[C@H]1C(=O)N2C[C@@H](O)C[C@@H]2C(=O)N[C@@H](CC(=O)O)C(=O)N[C@@H](C(C)C)C(=O)N(C)[C@@H](Cc2ccccc2)C(=O)N[C@@H](Cc2ccc(O)cc2)C(=O)N2C[C@@H](O)C[C@@H]2C(=O)N[C@@H](Cc2c[nH]c3ccccc23)C(=O)N[C@@H](Cc2ccc(O)cc2)C(=O)N[C@@H](CC(C)C)C(=O)N[C@H](C(=O)NCC(N)=O)CSCC(=O)N[C@@H](Cc2cc(F)c(F)c(F)c2)C(=O)N(C)[C@@H](Cc2ccccc2)C(=O)N1C [Example 9273] ({CH2CO}-[Phe(3,4,5-F3)][NMeF][NMeNle][dHyp]DV[NMeF]Y[dHyp]WYLCG-NH2; thioether N-13)",1 to 9.9
2,CCCC[C@H]1C(=O)N2CCC[C@@H]2C(=O)N[C@@H](CO)C(=O)N[C@@H](CC)C(=O)N(C)[C@@H](Cc2ccccc2)C(=O)N[C@@H](Cc2ccc(O)cc2)C(=O)N(C)CC(=O)N[C@@H](Cc2csc3ccccc23)C(=O)N[C@@H](Cc2ccc(O)cc2)C(=O)N[C@@H](CC(C)C)C(=O)N[C@H](C(=O)NCC(N)=O)CSCC(=O)N[C@@H](Cc2ccccc2)C(=O)N(C)[C@@H](Cc2ccccc2)C(=O)N1C [Example 10059] ({CH2CO}-F[NMeF][NMeNle][dP]S[Abu][NMeF]Y[Sar][Bta]YLCG-NH2; thioether N-13),10 to 99.9
3,CCCC[C@H]1C(=O)N(C)[C@@H](CCCC)C(=O)N[C@@H](C)C(=O)NC(C(=O)NCC(N)=O)CSCC(=O)N[C@@H](Cc2ccc(O)cc2)C(=O)N(C)[C@@H](C)C(=O)N[C@@H](CC(N)=O)C(=O)N2CCC[C@H]2C(=O)N[C@@H](CC(N)=O)C(=O)N[C@@H](CC(C)C)C(=O)N2CCC[C@H]2C(=O)N[C@@H](Cc2c[nH]c3ccccc23)C(=O)N[C@@H](CO)C(=O)N[C@@H](Cc2c[nH]c3ccccc23)C(=O)N1C (stereo partly drawn) [Example 9132] ({CH2CO}-Y[NMeA]NPNLPWSW[NMeNle][NMeNle]A[ξC]G-NH2; thioether N-14),10 to 99.9
4,CCCC[C@H]1C(=O)N(C)[C@@H](CCCC)C(=O)N[C@@H](CC(C)C)C(=O)N[C@H](C(=O)NCC(N)=O)CSCC(=O)N[C@@H](Cc2ccc(O)cc2)C(=O)N(C)[C@@H](C)C(=O)N[C@@H](CC(N)=O)C(=O)N2CCC[C@H]2C(=O)N[C@@H](Cc2c[nH]cn2)C(=O)N[C@@H](CCC(N)=O)C(=O)N2C[C@H](O)C[C@H]2C(=O)N[C@@H]([C@@H](C)c2c[nH]c3ccccc23)C(=O)N[C@@H](CO)C(=O)N[C@@H](Cc2c[nH]c3ccccc23)C(=O)N1C [Example 10554] ({CH2CO}-Y[NMeA]NPHQ[Hyp][Trp(βS-Me)]SW[NMeNle][NMeNle]LCG-NH2; thioether N-14),1 to 9.9
5,CCCC[C@H]1C(=O)N2CCC[C@@H]2C(=O)N[C@@H](CC(=O)O)C(=O)N[C@@H](C(C)C)C(=O)N(C)[C@@H](Cc2ccc(C)cc2)C(=O)N[C@@H](CCN)C(=O)N2CCC[C@@H]2C(=O)N[C@@H](Cc2c[nH]c3ccccc23)C(=O)N[C@@H](Cc2ccc(O)cc2)C(=O)N[C@@H](CC(C)C)C(=O)N[C@H](C(=O)NCC(N)=O)CSCC(=O)N[C@@H](Cc2ccc(F)cc2)C(=O)N(C)[C@@H](Cc2ccccc2)C(=O)N1C [Example 10113] ({CH2CO}-[Phe(4-F)][NMeF][NMeNle][dP]DV[NMePhe(4-Me)][Dab][dP]WYLCG-NH2; thioether N-13),100 to 990
6,"COCC[C@H]1C(=O)N2C[C@@H](O)C[C@@H]2C(=O)N[C@@H](CC(=O)O)C(=O)N[C@@H](C(C)C)C(=O)N(C)[C@@H](Cc2ccccc2)C(=O)N[C@@H](Cc2ccc(O)cc2)C(=O)N2C[C@@H](O)C[C@@H]2C(=O)N[C@@H](Cc2c[nH]c3ccccc23)C(=O)N[C@@H](Cc2ccc(O)cc2)C(=O)N[C@@H](CC(C)C)C(=O)N[C@H](C(=O)NCC(N)=O)CSCC(=O)N[C@@H](Cc2ccc(F)c(F)c2)C(=O)N(C)[C@@H](Cc2ccccc2)C(=O)N1C [Example 9233] ({CH2CO}-[Phe(3,4-F2)][NMeF][NMehSer](Me)[dHyp]DV[NMeF]Y[dHyp]WYLCG-NH2; thioether N-13)",1 to 9.9
7,CCCC[C@H]1C(=O)N(C)CC(=O)N[C@@H](CO)C(=O)N[C@@H](CC)C(=O)N(C)[C@@H](Cc2ccccc2)C(=O)N[C@@H](Cc2ccc(O)cc2)C(=O)N2CCCC[C@@H]2C(=O)N[C@@H](Cc2c[nH]c3ccccc23)C(=O)N[C@@H](Cc2ccc(O)cc2)C(=O)N[C@@H](CC(C)C)C(=O)N[C@H](C(=O)NCC(N)=O)CSCC(=O)N[C@@H](Cc2ccccc2)C(=O)N(C)[C@@H](Cc2ccccc2)C(=O)N1C [Example 10061] ({CH2CO}-F[NMeF][NMeNle][Sar]S[Abu][NMeF]Y[dPip]WYLCG-NH2; thioether N-13),10 to 99.9

# Now from value to compound:
row,IC50 [nM],Structure (SMILES)
1,1 to 9.9,CCCC[C@H]1C(=O)N(C)[C@@H](CCCC)C(=O)N[C@@H](C)C(=O)N[C@H](C(=O)NCC(N)=O)CSCC(=O)N[C@@H](Cc2ccc(O)cc2)C(=O)N2CCCC[C@H]2C(=O)N[C@@H](CC(=O)O)C(=O)N2CCC[C@H]2C(=O)N[C@@H](CN)C(=O)N[C@@H](CCC(=O)O)C(=O)N2C[C@H](O)C[C@H]2C(=O)N[C@@H](Cc2c[nH]c3ccccc23)C(=O)N[C@@H](CO)C(=O)N[C@@H](Cc2c[nH]c3ccccc23)C(=O)N1C [Example 1258] ({CH2CO}-Y[Pip]DP[Dap]E[Hyp]WSW[NMeNle][NMeNle]ACG-NH2; thioether N-14)
2,1 to 9.9,CCCC[C@H]1C(=O)N(C)[C@@H](CCCC)C(=O)N[C@@H](CCC(=O)O)C(=O)N[C@H](C(=O)NCC(N)=O)CSCC(=O)N[C@@H](Cc2ccc(OC)cc2)C(=O)N(C)[C@@H](C)C(=O)N[C@@H](CC(=O)O)C(=O)N2CCC[C@H]2C(=O)N[C@@H](Cc2c[nH]cn2)C(=O)N[C@@H](CCCCN)C(=O)N2C[C@H](O)C[C@H]2C(=O)N[C@@H](Cc2c[nH]c3ccccc23)C(=O)N[C@@H](CCN)C(=O)N[C@@H](Cc2cn(CC(=O)O)c3ccccc23)C(=O)N1C [Example 7147] ({CH2CO}-Y(Me)[NMeA]DPHK[Hyp]W[Dab][Trp(1-CH2COOH)][NMeNle][NMeNle]ECG-NH2; thioether N-14)
3,10 to 99.9,CCCC[C@H]1C(=O)N(C)[C@@H](CCCC)C(=O)N[C@@H](CCCNC(=N)N)C(=O)N[C@H](C(=O)NCC(N)=O)CSCC(=O)N[C@@H](Cc2ccc(O)cc2)C(=O)N(C)[C@@H](C)C(=O)N[C@@H](CC(=O)O)C(=O)N2CCC[C@H]2C(=O)N[C@@H](Cc2c[nH]cn2)C(=O)N[C@@H](CCCCN)C(=O)N2C[C@H](O)C[C@H]2C(=O)N[C@@H](Cc2c[nH]c3ccccc23)C(=O)N[C@@H](CCCCN)C(=O)N[C@@H](Cc2csc3ccccc23)C(=O)N1C [Example 5256]
4,1 to 9.9,CCCC[C@H]1C(=O)N(C)[C@@H](CCCC)C(=O)N[C@@H](CCCNC(=N)N)C(=O)N[C@H](C(=O)NCC(N)=O)CSCC(=O)N[C@@H](Cc2ccc(OC)cc2)C(=O)N(C)[C@@H](C)C(=O)N[C@@H](CC(N)=O)C(=O)N2CCC[C@H]2C(=O)N[C@@H](Cc2cnc[nH]2)C(=O)N[C@@H](CCC(=O)O)C(=O)C2C[C@H](O)C[C@H]2C(=O)N[C@@H](Cc2c[nH]c3ccccc23)C(=O)N[C@@H](CCN)C(=O)N[C@@H](Cc2c[nH]c3ccccc23)C(=O)N1C (stereo partly drawn) [Example 7085] ({CH2CO}-Y(Me)[NMeA]NPH[X5]W[Dab]W[NMeNle][NMeNle]RCG-NH2; thioether N-13)
5,1 to 9.9,CCCC[C@H]1C(=O)N(C)[C@@H](CCCC)C(=O)N[C@@H](CCCN)C(=O)N[C@H](C(=O)NCC(N)=O)CSCC(=O)N[C@@H](Cc2ccc(OC)cc2)C(=O)N(C)[C@@H](C)C(=O)N[C@@H](CC(=O)O)C(=O)N2CCC[C@H]2C(=O)N[C@@H](CN)C(=O)N[C@@H](CCC(=O)O)C(=O)N2C[C@H](O)C[C@H]2C(=O)N[C@@H](Cc2c[nH]c3ccccc23)C(=O)N[C@@H](CC(=O)O)C(=O)N[C@@H](Cc2c[nH]c3ccccc23)C(=O)N1C [Example 7101] ({CH2CO}-Y(Me)[NMeA]DP[Dap]E[Hyp]WDW[NMeNle][NMeNle][Orn]CG-NH2; thioether N-14)
6,1 to 9.9,CCCC[C@H]1C(=O)N(C)[C@@H](CCCC)C(=O)N[C@@H](CC(C)C)C(=O)N[C@H](C(=O)NCC(N)=O)CSCC(=O)N[C@@H](Cc2ccc(O)cc2)C(=O)N(C)[C@@H](C)C(=O)N[C@@H](CC(=O)O)C(=O)N2CCC[C@H]2C(=O)N[C@@H](Cc2cnc[nH]2)C(=O)N[C@@H](CCC(N)=O)C(=O)N2C[C@H](O)C[C@H]2C(=O)N[C@@H](Cc2c[nH]c3ccccc23)C(=O)N[C@@H](CO)C(=O)N[C@@H](Cc2cn(C)c3ccccc23)C(=O)N1C [Example 1503] ({CH2CO}-Y[NMeA]DPHQ[Hyp]WS[Trp(1-Me)][NMeNle][NMeNle]LCG-NH2; thioether N-14)

# Same assay, conditions: PD-L1-His 10 nM, PD-1-Ig 20 nM; read-out: HTRF Human PD-L1/PD-1 Binding Assay IC50
row,IC50 [nM],Structure (SMILES)
1,1000,CSCC[C@H]1C(=O)N2C[C@H](O)C[C@H]2C(=O)N[C@@H](CC(N)=O)C(=O)N[C@@H](C(C)C)C(=O)N(C)[C@@H](Cc2ccccc2)C(=O)N[C@@H](Cc2ccc(O)cc2)C(=O)N2C[C@H](O)C[C@H]2C(=O)N[C@@H](Cc2c[nH]c3ccccc23)C(=O)N[C@@H](Cc2ccc(O)cc2)C(=O)N[C@@H](CC(C)C)C(=O)N[C@H](C(=O)NCC(N)=O)CSCC(=O)N[C@@H](Cc2ccccc2)C(=O)N(C)[C@@H](Cc2ccccc2)C(=O)N1C [Example 9167] ({CH2CO}-F[NMeF][NMeM][Hyp]NV[NMeF]Y[Hyp]WYLCG-NH2; thioether N-13)
2,1000,CCCC[C@H]1C(=O)N(C)[C@@H](CCCC)C(=O)N[C@@H](CCCN)C(=O)N[C@H](C(=O)NCC(N)=O)CSCC(=O)N[C@@H](Cc2ccc(O)cc2)C(=O)N2CCC[C@]2(C)C(=O)N[C@@H](CC(N)=O)C(=O)N2CCCC2C(=O)N[C@@H](Cc2cnc[nH]2)C(=O)N[C@@H](CC(C)C)C(=O)N2C[C@H](O)C[C@H]2C(=O)N[C@@H](Cc2c[nH]c3ccccc23)C(=O)N[C@@H](CO)C(=O)N[C@@H](Cc2c[nH]c3ccccc23)C(=O)N1C (stereo partly drawn) [Example 1241]
